Consider two compounds from patent publication US9763444B2, “Compositions and methods for repelling blood-sucking and biting insects, ticks and mites” (The United States of America, as represented by the …, priority 2013, dated 2017).

The test system of assay [1] is female Aedes aegypti. The assay can be described thus: Knock down (KD) after forced contact with treated muslin cloth (insecticidal properties). To be noted: 2 min forced exposure to treated cloth. In kind it is in vivo. The procedure:
The minimum effective dosage (MED) for repellency of 99% of mosquitoes was determined by wearing treated muslin cloth with varying concentrations of the chemical. At a surface concentration of 0.011 mg/cm^2, nearly all mosquitoes are repelled from the surface. The insecticidal properties required a much higher concentration of 2. All tests were conducted by forcing mosquitoes (5 per replicate×5 replicates) into contact with treated muslin cloth.

For assay [2], the system named is Ae. aegypti. Kind of assay: Minimum Effective Dosage (MED) test on treated cloth, mosquito repellency. Type of assay: in vivo, Aedes aegypti. To be noted: for Ae. aegypti Minimum Effective Dosage, M9: human subject M9; for Ae. aegypti Minimum Effective Dosage, M10: human subject M10. The procedure: Bioassay for mosquito repellent activity: Repellency screening test for experimental chemicals were carried out to identify candidates that might be useful repellents. The repellent efficacy was compared to that of the standard repellent, DEET. Experimental compounds were assessed in one of two ways: (1) a range of concentration was evaluated to determine the minimum effective dosage (MED) which was the concentration threshold of where the repellent began to fail and allowed bites, or (2) a predetermined concentration of each repellent was applied to cloth and the activity was evaluated over several days (or in some cases months) (Katritzky, A. R., et al., Proc. Nat. Acad. Sci. (US), 105, 7359-7364 (2008); Katritzky, A. R., et al., Journal of Med. Entomol., 47: 924-938 (2010)). When conducting assays for repellency, a failure point was also predetermined for those measurements. Since experiments described herein used about 500 female mosquitoes per test, the failure point was set at 1% (equal to 5 bites) received during a test interval. From 3 to 5 volunteers participated in the screening of each set of chemicals.
Minimum Effective Dosage (MED) Test: The MED bioassays on treated cloth were a method of screening to determine the minimum amount of a repellent needed to prevent bites. Experimental compounds were prepared in solution by combining 0.15 g of experimental chemical with 2 mL of acetone in a 7.1 mL screwtop glass vial. This solution was then serially diluted to obtain nine concentrations when applied on to the cloth patch: 1.5, 0.75, 0.375, 0.187, 0.094, 0.047, 0.023, 0.011, and 0.006 mg/cm^2. The standard N,N-diethyl-3-methylbenzamide (DEET) was also tested at the same concentration levels to serve as a control and a comparison for relative repellency. A 50 cm^2 (5 cm×10 cm) patch of muslin cloth was rolled lengthwise and placed into each of the glass vials and scaled with a screwtop so it soaked up the solution. Just prior to the experiment, the pieces of treated cloth were removed from the vials, affixed to card stock tabs (5 cm×3 cm) with staples, and hung with masking tape on a rack to dry and allow acetone to evaporate. Volunteers wore a latex glove over their hands, a nylon stocking over their arm, and then wrapped a plastic Velcro-sealed sleeve over their entire forearm with a 32 cm^2 (4 cm×8 cm) window cut-out to allow mosquitoes to bite through. The nylon stocking acted as a barrier between the dried cloth and the skin, an additional precaution with experimental compounds. Dried cloth patches were stretched across the window in the plastic sleeve and held in place with masking tape. Volunteers placed their sleeve-covered arms into a screened cage for a one minute period with approximately 500 female Ae. aegypti mosquitoes that had been preselected for host-seeking behavior using a draw box (Posey, K. H., and C. E. Schreck, Mosquito News, 41: 566-568 (1981)). […] The MED recorded was the lowest passing concentration level tested for the experimental compound. […] All human volunteers in the study provided informed consent to participate of a protocol approved by the University of Florida Human Use Institutional Review Board (IRB #636-2005).

Assay [3] concerns An. albimanus. The description is as above. Type of assay: in vivo, Anopheles albimanus. To be noted: Table 4; for An. albimanus Minimum Effective Dosage, Average: mean of 5 volunteers; for An. albimanus Minimum Effective Dosage, M4: subject M4; for An. albimanus Minimum Effective Dosage, M4 / An. albimanus Minimum Effective Dosage, M5 / An. albimanus Minimum Effective Dosage, M8 / An. albimanus Minimum Effective Dosage, M9 / An. albimanus Minimum Effective Dosage, M10: highest concentration 1.500 mg/cm^2; for An. albimanus Minimum Effective Dosage, M5: subject M5; for An. albimanus Minimum Effective Dosage, M8: subject M8; for An. albimanus Minimum Effective Dosage, M9: subject M9; for An. albimanus Minimum Effective Dosage, M10: subject M10.

Where [4] appears, read: Table 1 preliminary assay, human subject M4, highest concentration 1.500 mg/cm^2.
Where [5] appears, read: Table 1 preliminary assay, human subject M5, highest concentration 1.500 mg/cm^2.
Where [6] appears, read: Table 1 preliminary assay, human subject M8, highest concentration 1.500 mg/cm^2.
Setting [7] is: Table 1 preliminary assay, highest concentration 1.500 mg/cm^2.
Setting [8] is: Table 1 preliminary assay, mean of 5 volunteers.
Where [9] appears, read: Table 5, subject M4, highest dose 0.375 mg/cm2 (0.187 for 7).
Where [10] appears, read: Table 5, subject M5, highest dose 0.375 mg/cm2 (0.187 for 7).
Setting [11] is: Table 5, subject M8, highest dose 0.375 mg/cm2 (0.187 for 7).

On to `CC1(C)C=Cc2c(CO)cccc2O1` [Compound 2], for which the “KD100 @ 1 h, surface concentration” value in assay [1] (knock down counted after 1 h) turned out to be 15.38 mg/cm^2. Also, the “KD100 @ 5 h, surface concentration” value in assay [1] (knock down counted after 5 h) is given as 7.69 mg/cm^2. Further, in assay [1] (knock down counted after 8 h), the “KD100 @ 8 h, surface concentration” value was determined as 0.96 mg/cm^2. For the same compound, the “mosquito repellent activity against Ae. aegypti (in words)” value in assay [2] (MED test on treated cloth) is on record as “act as mosquito repellents”. Also, the “Ae. aegypti Minimum Effective Dosage, M4” value in assay [2] (setting [4]) is on record as 0.011 mg/cm^2. For the same compound, the “Ae. aegypti Minimum Effective Dosage, M5” value in assay [2] (setting [5]) turned out to be 0.011 mg/cm^2. For the same compound, the “Ae. aegypti Minimum Effective Dosage, M8” value in assay [2] (setting [6]) worked out at 0.011 mg/cm^2. In assay [2] (setting [7]), the “Ae. aegypti Minimum Effective Dosage, M9” value amounted to 0.094 mg/cm^2 and the “Ae. aegypti Minimum Effective Dosage, M10” value is recorded as 0.047 mg/cm^2. In addition, the “Ae. aegypti Minimum Effective Dosage, Average” value in assay [2] (setting [8]) is reported as 0.035 mg/cm^2. In addition, the “Ae. aegypti Minimum Effective Dosage, F1” value in assay [2] (Table 2, human subject F1, highest concentration 1.500 mg/cm^2) is reported as 0.023 mg/cm^2. In assay [2] (Table 2, human subject M1, highest concentration 1.500 mg/cm^2), the “Ae. aegypti Minimum Effective Dosage, M1” value is 0.023 mg/cm^2. In addition, in assay [2] (Table 2, human subject M2, highest concentration 1.500 mg/cm^2), the “Ae. aegypti Minimum Effective Dosage, M2” value came out at 0.023 mg/cm^2. The “Ae. aegypti Minimum Effective Dosage, Average” value in assay [2] (Table 2, mean of 3 volunteers) amounted to 0.023 mg/cm^2. Besides, the “Ae. aegypti Minimum Effective Dosage, Average” value in assay [2] (Table 5, mean of 3 volunteers) was determined as 0.009 mg/cm^2. Besides, in assay [2] (setting [9]), the “Ae. aegypti Minimum Effective Dosage, M4” value is 0.011 mg/cm^2. Also, the “Ae. aegypti Minimum Effective Dosage, M5” value in assay [2] (setting [10]) is reported as 0.011 mg/cm^2. Further, in assay [2] (setting [11]), the “Ae. aegypti Minimum Effective Dosage, M8” value is listed as 0.006 mg/cm^2. Also, the “MED for ~100% Repellency (ED99), surface concentration” value in assay [2] (Table 7, treated cloth, female Aedes aegypti) came to 0.011 mg/cm^2. Also, in assay [3], the “An. albimanus Minimum Effective Dosage, Average” value is 0.234 mg/cm^2; the “An. albimanus Minimum Effective Dosage, M4” value stood at 0.047 mg/cm^2; the “An. albimanus Minimum Effective Dosage, M5” value came out at 0.375 mg/cm^2; the “An. albimanus Minimum Effective Dosage, M8” value stood at 0.187 mg/cm^2. Also, in assay [3], the “An. albimanus Minimum Effective Dosage, M9” value turned out to be 0.375 mg/cm^2 and the “An. albimanus Minimum Effective Dosage, M10” value was found to be 0.187 mg/cm^2.
In the case of `CCN(CC)C(=O)c1cccc(C)c1` [DEET, N,N-diethyl-3-methylbenzamide, reference compound], the “Ae. aegypti Minimum Effective Dosage, M4” value in assay [2] (setting [4]) worked out at 0.111 mg/cm^2. Also, the “Ae. aegypti Minimum Effective Dosage, M5” value in assay [2] (setting [5]) came out at 0.023 mg/cm^2. Also, in assay [2] (setting [6]), the “Ae. aegypti Minimum Effective Dosage, M8” value is 0.023 mg/cm^2. For the same compound, in assay [2] (setting [7]), the “Ae. aegypti Minimum Effective Dosage, M9” value worked out at 0.023 mg/cm^2 and the “Ae. aegypti Minimum Effective Dosage, M10” value was determined as 0.023 mg/cm^2. Besides, in assay [2] (setting [8]), the “Ae. aegypti Minimum Effective Dosage, Average” value was 0.021 mg/cm^2. In addition, the “Ae. aegypti Minimum Effective Dosage, Average” value in assay [2] (Table 5, mean of 3 volunteers) worked out at 0.015 mg/cm^2. Moreover, the “Ae. aegypti Minimum Effective Dosage, M4” value in assay [2] (setting [9]) is on record as 0.011 mg/cm^2. The “Ae. aegypti Minimum Effective Dosage, M5” value in assay [2] (setting [10]) was found to be 0.011 mg/cm^2. The “Ae. aegypti Minimum Effective Dosage, M8” value in assay [2] (setting [11]) turned out to be 0.023 mg/cm^2. In assay [3], the “An. albimanus Minimum Effective Dosage, Average” value was found to be 0.025 mg/cm^2; the “An. albimanus Minimum Effective Dosage, M4” value came to 0.011 mg/cm^2; the “An. albimanus Minimum Effective Dosage, M5” value is reported as 0.047 mg/cm^2; the “An. albimanus Minimum Effective Dosage, M8” value is recorded as 0.023 mg/cm^2. In addition, in assay [3], the “An. albimanus Minimum Effective Dosage, M9” value is reported as 0.023 mg/cm^2 and the “An. albimanus Minimum Effective Dosage, M10” value is listed as 0.023 mg/cm^2.
